From PubChem BioAssay AID1963448 (Molecular Pharmacology Branch, DTP, NCI, 2024)

System: 616215-338-R-J1-PDC complex spheroid growth, % test/control
Assay: Anticancer human tumor 616215-338-R-J1-PDC patient-derived colon adenocarcinoma cell line growth inhibition [Asc]
Conditions: for IC50: curve of first compound; for viability, T/C: stronger effect = lower value
Summary of the method: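 Complex spheroids combining tumor cells with HUVEC endothelial cells and human MSCs, at 37 degrees C, 5% CO2; agents tested alone or combined, half-log dilutions from at or near clinical Cmax, or 10 microM if Cmax unknown.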

[1] = second compound 0.1 µM, first compound 0.0316 µM
[2] = second compound 0.1 µM, first compound 0.1 µM
[3] = second compound 0.316 µM, first compound 0.0316 µM
[4] = second compound 0.316 µM, first compound 0.1 µM
[5] = second compound 1 µM, first compound 0.0316 µM
[6] = second compound 1 µM, first compound 0.1 µM
[7] = second compound 3.16 µM, first compound 0.0316 µM
[8] = second compound 3.16 µM, first compound 0.1 µM
[9] = second compound 10 µM, first compound 0.0316 µM
[10] = second compound 10 µM, first compound 0.1 µM
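Also: spheroids exposed to agents for seven days before readout.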
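For viability, T/C in this document: 100% = DMSO vehicle control viability.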

`Cc1nc(N2CCC3(CC2)COC(C)C3N)c(CO)nc1Sc1ccnc(N)c1Cl` (configuration not stated) + CNC(C)C(=O)NC1CN(S(=O)(=O)c2cccc(S(=O)(=O)N3CCC4CCC(C(=O)NC(c5ccccc5)c5ccccc5)N4C(=O)C(NC(=O)C(C)NC)C3)c2)CCC2CCC(C(=O)NC(c3ccccc3)c3ccccc3)N2C1=O gave an IC50 (second compound 0.00316 µM) of 0.969 µM, an IC50 (second compound 0.01 µM) of 0.534 µM and an IC50 (second compound 0.0316 µM) of 1.08 µM. It also gave an IC50 (second compound 0.1 µM) of 0.784 µM, an IC50 (second compound 0.316 µM) of 0.53 µM and an IC50 (second compound 1 µM) of 1.77 µM. It also gave a viability, T/C (second compound 0.00316 µM, first compound 0.00949 µM) of 96.8%, a viability, T/C (second compound 0.00316 µM, first compound 0.03 µM) of 104% and a viability, T/C (second compound 0.00316 µM, first compound 0.0949 µM) of 89.7%. It also gave a viability, T/C (second compound 0.00316 µM, first compound 0.3 µM) of 99.3%, a viability, T/C (second compound 0.00316 µM, first compound 0.949 µM) of 50.8% and a viability, T/C (second compound 0.00316 µM, first compound 3 µM) of 8.66%. For the same compound, the viability, T/C (second compound 0.01 µM, first compound 0.00949 µM) was 87.2%, the viability, T/C (second compound 0.01 µM, first compound 0.03 µM) was 94.1% and the viability, T/C (second compound 0.01 µM, first compound 0.0949 µM) was 99.7%. For the same compound, the viability, T/C (second compound 0.01 µM, first compound 0.3 µM) was 85.3%, the viability, T/C (second compound 0.01 µM, first compound 0.949 µM) was 14.7% and the viability, T/C (second compound 0.01 µM, first compound 3 µM) was 7.72%. The viability, T/C (second compound 0.0316 µM, first compound 0.00949 µM) was 99.4%, the viability, T/C (second compound 0.0316 µM, first compound 0.03 µM) was 68.4% and the viability, T/C (second compound 0.0316 µM, first compound 0.0949 µM) was 104%. It also gave a viability, T/C (second compound 0.0316 µM, first compound 0.3 µM) of 98.4%, a viability, T/C (second compound 0.0316 µM, first compound 0.949 µM) of 54.9% and a viability, T/C (second compound 0.0316 µM, first compound 3 µM) of 11.4%. The viability, T/C (second compound 0.1 µM, first compound 0.00949 µM) was 103%, the viability, T/C (second compound 0.1 µM, first compound 0.03 µM) was 85.1% and the viability, T/C (second compound 0.1 µM, first compound 0.0949 µM) was 94%. The viability, T/C (second compound 0.1 µM, first compound 0.3 µM) was 115%, the viability, T/C (second compound 0.1 µM, first compound 0.949 µM) was 40.3% and the viability, T/C (second compound 0.1 µM, first compound 3 µM) was 9.21%. The viability, T/C (second compound 0.316 µM, first compound 0.00949 µM) was 92.2%, the viability, T/C (second compound 0.316 µM, first compound 0.03 µM) was 78.3% and the viability, T/C (second compound 0.316 µM, first compound 0.0949 µM) was 98.2%. The viability, T/C (second compound 0.316 µM, first compound 0.3 µM) was 68.3%, the viability, T/C (second compound 0.316 µM, first compound 0.949 µM) was 29.9% and the viability, T/C (second compound 0.316 µM, first compound 3 µM) was 11.6%. The viability, T/C (second compound 1 µM, first compound 0.00949 µM) was 83.1%, the viability, T/C (second compound 1 µM, first compound 0.03 µM) was 88.3% and the viability, T/C (second compound 1 µM, first compound 0.0949 µM) was 103%. For the same compound, the viability, T/C (second compound 1 µM, first compound 0.3 µM) was 92.5%, the viability, T/C (second compound 1 µM, first compound 0.949 µM) was 101% and the viability, T/C (second compound 1 µM, first compound 3 µM) was 12.8%.

For `Cn1ncnc1[C@H]1c2n[nH]c(=O)c3cc(F)cc(c23)N[C@@H]1c1ccc(F)cc1` + Cc1c(S(C)(=O)=O)c(-c2cc(F)cc(N3CCN(c4ccc(NS(=O)(=O)c5ccc(NC(CCN6CCC(C(=O)OCCCP(=O)(O)O)CC6)CSc6ccccc6)c(S(=O)(=O)C(F)(F)F)c5)cc4)CC3)c2)c(-c2ccc(Cl)cc2)n1C(C)C, the IC50 (second compound 0.1 µM) was greater than 0.1 µM, the IC50 (second compound 0.316 µM) was greater than 0.1 µM and the IC50 (second compound 1 µM) was 0.0154 µM. For the same compound, the IC50 (second compound 3.16 µM) was less than 0.000316 µM, the IC50 (second compound 10 µM) was less than 0.000316 µM and the viability, T/C (second compound 0.1 µM, first compound 0.000316 µM) was 88.5%. The viability, T/C (second compound 0.1 µM, first compound 0.001 µM) was 104%, the viability, T/C (second compound 0.1 µM, first compound 0.00316 µM) was 85.2% and the viability, T/C (second compound 0.1 µM, first compound 0.01 µM) was 90.1%. The viability, T/C [1] was 86.2%, the viability, T/C [2] was 84.9% and the viability, T/C (second compound 0.316 µM, first compound 0.000316 µM) was 86.4%. The viability, T/C (second compound 0.316 µM, first compound 0.001 µM) was 87.6%, the viability, T/C (second compound 0.316 µM, first compound 0.00316 µM) was 90.8% and the viability, T/C (second compound 0.316 µM, first compound 0.01 µM) was 85.8%. It also gave a viability, T/C [3] of 76.6%, a viability, T/C [4] of 69.3% and a viability, T/C (second compound 1 µM, first compound 0.000316 µM) of 66.9%. For the same compound, the viability, T/C (second compound 1 µM, first compound 0.001 µM) was 67.8%, the viability, T/C (second compound 1 µM, first compound 0.00316 µM) was 63.7% and the viability, T/C (second compound 1 µM, first compound 0.01 µM) was 54%. For the same compound, the viability, T/C [5] was 42.7%, the viability, T/C [6] was 32.9% and the viability, T/C (second compound 3.16 µM, first compound 0.000316 µM) was 38.9%. For the same compound, the viability, T/C (second compound 3.16 µM, first compound 0.001 µM) was 39%, the viability, T/C (second compound 3.16 µM, first compound 0.00316 µM) was 27.3% and the viability, T/C (second compound 3.16 µM, first compound 0.01 µM) was 15.8%. The viability, T/C [7] was 9.58%, the viability, T/C [8] was 4.09% and the viability, T/C (second compound 10 µM, first compound 0.000316 µM) was 25.9%. The viability, T/C (second compound 10 µM, first compound 0.001 µM) was 20%, the viability, T/C (second compound 10 µM, first compound 0.00316 µM) was 10.4% and the viability, T/C (second compound 10 µM, first compound 0.01 µM) was 4.53%. For the same compound, the viability, T/C [9] was 2.52% and the viability, T/C [10] was 1.65%.

Compound `O=C(c1cc(Cc2n[nH]c(=O)c3ccccc23)ccc1F)N1CCN(C(=O)C2CC2)CC1` + Cc1c(S(C)(=O)=O)c(-c2cc(F)cc(N3CCN(c4ccc(NS(=O)(=O)c5ccc(NC(CCN6CCC(C(=O)OCCCP(=O)(O)O)CC6)CSc6ccccc6)c(S(=O)(=O)C(F)(F)F)c5)cc4)CC3)c2)c(-c2ccc(Cl)cc2)n1C(C)C has an IC50 (second compound 0.1 µM) greater than 10 µM, an IC50 (second compound 0.316 µM) of 6.75 µM and an IC50 (second compound 1 µM) of 0.755 µM. It also gave an IC50 (second compound 3.16 µM) of less than 0.0316 µM, an IC50 (second compound 10 µM) of less than 0.0316 µM and a viability, T/C [1] of 95.5%. For the same compound, the viability, T/C [2] was 96%, the viability, T/C (second compound 0.1 µM, first compound 0.316 µM) was 92.5% and the viability, T/C (second compound 0.1 µM, first compound 1 µM) was 92%. For the same compound, the viability, T/C (second compound 0.1 µM, first compound 3.16 µM) was 89.1%, the viability, T/C (second compound 0.1 µM, first compound 10 µM) was 78.8% and the viability, T/C [3] was 88.8%. For the same compound, the viability, T/C [4] was 90%, the viability, T/C (second compound 0.316 µM, first compound 0.316 µM) was 85.4% and the viability, T/C (second compound 0.316 µM, first compound 1 µM) was 86.5%. For the same compound, the viability, T/C (second compound 0.316 µM, first compound 3.16 µM) was 66.6%, the viability, T/C (second compound 0.316 µM, first compound 10 µM) was 41.4% and the viability, T/C [5] was 72.7%. It also gave a viability, T/C [6] of 67.6%, a viability, T/C (second compound 1 µM, first compound 0.316 µM) of 59% and a viability, T/C (second compound 1 µM, first compound 1 µM) of 49%. The viability, T/C (second compound 1 µM, first compound 3.16 µM) was 26.3%, the viability, T/C (second compound 1 µM, first compound 10 µM) was 10.9% and the viability, T/C [7] was 34%. It also gave a viability, T/C [8] of 30.4%, a viability, T/C (second compound 3.16 µM, first compound 0.316 µM) of 25.3% and a viability, T/C (second compound 3.16 µM, first compound 1 µM) of 17.2%. For the same compound, the viability, T/C (second compound 3.16 µM, first compound 3.16 µM) was 3.59%, the viability, T/C (second compound 3.16 µM, first compound 10 µM) was 2.49% and the viability, T/C [9] was 20.7%. It also gave a viability, T/C [10] of 18.4%, a viability, T/C (second compound 10 µM, first compound 0.316 µM) of 11.2% and a viability, T/C (second compound 10 µM, first compound 1 µM) of 3.83%. The viability, T/C (second compound 10 µM, first compound 3.16 µM) was 1.31% and the viability, T/C (second compound 10 µM, first compound 10 µM) was 1.84%.
